# Results from ChEMBL document CHEMBL5034040, “Amide-to-Ester Substitution as a Strategy for Optimizing PROTAC Permeability and Cellular Activity” (J Med Chem, 2021).
# Assay: Permeability of the compound in PBS at pH 7.4 after 16 hrs by PAMPA
# Format: ADME
# Conditions: read-out: Peff
row,Papp at 16 h,SMILES
1,0.2 ×10⁻⁶ cm/s,Cc1ncsc1-c1ccc([C@H](C)NC(=O)[C@@H]2C[C@@H](O)CN2C(=O)[C@@H](NC(=O)COCCCOCCNC(=O)C[C@@H]2N=C(c3ccc(Cl)cc3)c3c(sc(C)c3C)-n3c(C)nnc32)C(C)(C)C)cc1
2,0.01 ×10⁻⁶ cm/s,Cc1ncsc1-c1ccc(CNC(=O)[C@@H]2C[C@@H](O)CN2C(=O)[C@@H](NC(=O)COCCOCCOCCNC(=O)C[C@@H]2N=C(c3ccc(Cl)cc3)c3c(sc(C)c3C)-n3c(C)nnc32)C(C)(C)C)cc1
